Here are results for one compound from patent US20040096356A1, “Assay device for determining analytes in a liquid dairy product” (priority 1997, published 2004).

Molecules are shown by their SMILES.

For this assay, the target named is T1, enzyme R39 (soluble exocellular D-alanyl-D-alanine carboxypeptidase produced by Actinomadura R39) (Actinomadura sp., UniProt P39045).
T1 construct: soluble exocellular D-alanyl-D-alanine carboxypeptidase produced by Actinomadura R39, obtained by the procedure described in J.-M. Frere et al; made in house; host or cells: Actinomadura R39 (natural producer, secreted enzyme)
T1 sequence (P39045 50-515): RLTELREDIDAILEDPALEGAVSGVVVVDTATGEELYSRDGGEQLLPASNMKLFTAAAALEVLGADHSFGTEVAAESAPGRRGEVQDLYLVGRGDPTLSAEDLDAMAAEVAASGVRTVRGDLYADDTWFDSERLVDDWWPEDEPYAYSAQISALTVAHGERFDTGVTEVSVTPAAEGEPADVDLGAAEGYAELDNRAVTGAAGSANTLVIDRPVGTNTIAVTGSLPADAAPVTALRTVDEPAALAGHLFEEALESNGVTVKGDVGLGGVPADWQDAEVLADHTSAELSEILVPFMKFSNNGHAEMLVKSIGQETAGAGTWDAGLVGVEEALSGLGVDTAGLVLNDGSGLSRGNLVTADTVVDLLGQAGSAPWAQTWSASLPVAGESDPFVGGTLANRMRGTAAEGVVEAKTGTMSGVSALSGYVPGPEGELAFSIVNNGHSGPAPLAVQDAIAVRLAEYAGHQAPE
Kind of assay: Test 2, sensitive test (7 minutes): strip test for β-lactam antibiotics in milk using enzyme R39. The conditions noted are these: for Intensity 1st band: scale 0 to 10, reference band 6, 47° C., 5 min incubation + 2 min migration. In kind it is binding. How it is done: The identifier used in this example is soluble exocellular D-alanyl-D-alanine carboxypeptidase produced by Actinomadura R39, obtained by the procedure described in J.-M. Frere et al., Antimicrobial Agents and Chemotherapy, 18(4), 506-510 (1980).
250 μl of an aqueous solution of enzyme R39 having a concentration of 1 mg/ml are dialysed for 24 hours against 500 ml of HNM buffer (Hepes 10 mM, pH 8, NaCl 10 mM, MgCl2 5 mM). To this dialysed solution of enzyme R39 are then added 2 ml of bicarbonate buffer (0.1 M sodium bicarbonate, pH 9) and 250 μl of a solution of N-hydroxysuccinimide 6-(biotinamido)caproic ester having a concentration of 5 mg/ml in anhydrous DMF. This solution is stirred gently in the LABINCO stirrer for tubes on a rotary axis (available from VEL, Belgium) at a rate of 2 revolutions/minute for 3 hours at room temperature and away from light. The solution thus obtained is dialysed against the HNM buffer ([…]) for 24 hours. In this way a solution of biotinylated enzyme R39 is obtained which is diluted in HNM-BSA buffer (Hepes 500 mM; pH 8, NaCl 500 mM, MgCl2 250 mM, BSA 10 mg/ml) to a concentration of 100 μg of enzyme R39 per ml of buffer. This solution is stored at −20° C.
As the marker use is made of particles of gold having a diameter of 40 nm on which a goat anti-biotin antibody has been deposited in the form of suspensions in a 2 mM aqueous sodium tetraborate solution, with a pH of 7.2, stabilized by 0.1% of sodium azide (available from British Biocell (Ref. GAB40)). The optical density of these suspensions at 520 nm is approximately 10 and the protein concentration is approximately 24 μg/ml.
The biotinylated enzyme R39 solution prepared in Example 2.2.1 is diluted 50 times with the HNM-BSA buffer (Hepes 500 mM, pH 8, NaCl 500 mM, MgCl2 250 mM, BSA 10 mg/ml). At room temperature, 17.5 parts by volume of this dilute biotinylated enzyme R39 solution, 9.27 parts by volume of the gold particle suspension used to label the enzyme R39 and 6 parts by volume of reference gold particle suspension are mixed (see Example 2.3).
The first capture substance makes it possible to fix the identifiers coupled with the free markers present in excess relative to the quantity of antibiotic present in the sample.
Assay devices containing membranes (2), (3) and (4) are used, assembled in accordance with the procedure described in Example 1.1. The membrane (3) of these devices carries on the proximal side the capture substance described in Example 2.4.1. and on the distal side the capture substance described in Example 2.4.2. The capture substances were deposited in accordance with the procedure described in Example 1.2.
Six samples of milk are prepared, containing 0; 2; 2.5; 3; 4 and 5 ppb, respectively, of penicillin G. Each of these solutions is then analysed as follows.
An aliquot is taken of 200 μl of milk sample and 32.8 μl of solution B prepared in Example 2.2.3, and is placed in an Eppendorf tube. This mixture is incubated at 47° C. for 5 minutes. An assay device is then placed vertically in the Eppendorf tube such that the first end of the assay device is in contact with the mixture. The mixture is allowed to migrate over the assay device while the assembly is incubated at 47° C. for 2 minutes.
An intensity value ranging from 0 to 10 is awarded to the bands detected, the value 10 being given to the most intense band and the value 0 being given to the least intense band. On this scale, a value 6 is awarded to the reference band. The intensity of the signal observed in the first detection band is inversely proportional to the quantity of penicillin G present in the sample.
In this example, the test is considered to be positive when the first band has an intensity which is lower than that of the reference band. The results shown in Table 2 indicate that this test makes it possible to detect in 7 minutes down to 2.5 ppb of penicillin G in a milk sample.

As for `CC1(C)S[C@@H]2[C@H](NC(=O)Cc3ccccc3)C(=O)N2[C@H]1C(=O)O` [Penicillin G, penicillin G], the “Intensity 1st band” value by setting is: (2 ppb penicillin G in milk) 7; (2.5 ppb penicillin G in milk) 5; (3 ppb penicillin G in milk) 4; (4 ppb penicillin G in milk) 1; (5 ppb penicillin G in milk) 0. In addition, the “lowest concentration detected in a milk sample” value (in 7 minutes, positive when first band is less intense than reference band) came out at 2.5 ppb.
